One series relates to PAF-induced hypotension. Nature of the series: PAF-induced hypotension test (Test D). Particulars: for decrease in blood pressure: within 10 sec.; for ED50: Rattus norvegicus, iv, Test D, Wistar rats, PAF-induced blood pressure decrease. It is filed as in vivo, Wistar rat.
The test system of series [1] is PAF-mediated broncho-constriction. In words: PAF-induced Pulmonary Inflation Pressure (PIP) Increase test (Test B). Particulars: Cavia porcellus, iv, i.a., guinea pigs, PAF 100 ng/kg i.v., maximal PIP. It is filed as in vivo, guinea pig.
Procedure: Male guinea pigs, weighing between 300 and 400 gm, are anesthetized, after which time trachea tube, carotid and jugular catheters are inserted. The test animal is then force ventilated employing a small animal Harvard respirator and the resistance to lung inflation (PIP) is measured utilizing a pressure transducer and recorder. The test compound is administered orally at 30 minutes prior to, intravenously (jugular) at 5 minutes prior to, or intraarterially at 1 to 5 minutes prior to the introduction of PAF. The PAF (C18 -Sandoz, Hanover) is dissolved in Tris-Tyrode's bovine serum albumin buffer and administered intravenously (jugular) at 100 ng/kg. Any blood pressure measurements taken are recorded from a transducer attached to the carotid catheter. Two responses are noted in the PIP recordings after the PAF is administered: (1) an immediate response which, in PAF-only treated test animals, averages out to between 70% and 80% more than the baseline PIP values. (This early response is also the greatest response and is, therefore, termed mazimal PIP); and (2) the long term (at least 30 minutes) PIP response which slowly decreases to baseline. A reading at 15 minutes after the administration of PAF is termed the endpoint PIP.
The test system of series [2] is PAF-induced hemoconcentration. Nature of the series: Decrease in inhibition of hemoconcentration over time (Test J). Type of series: in vivo, guinea pig. To be noted: i.v., x times the ED50, time still inhibiting 50%.
Procedure: (§1) Male guinea pigs, weighing between 300 and 400 gm, are anesthetized, after which time a femoral catheter is inserted. The test compound is administered intraarterially at one to five minutes prior to the introduction of PAF. The PAF (C18 -Sandoz, Hanover) is dissolved in Tris-Tyrode's bovine serum albumin buffer and administered intravenously (jugular) at 100 ng/kg.
(§2) To determine the hematocrit value, which is employed to index hemoconcentration and is defined as the percent of packed red blood cells in a sample of blood which is centrifuged to separate plasma from the cellular components, blood samples are collected in 50 μl heparinized hematocrit tubes. These samples are taken just prior to the injection of PAF, one minute subsequent to the injection of PAF and every two minutes thereafter until 15 minutes has lapsed subsequent to the injection of PAF. The tubes are then centrifuged and the percent of packed red blood cells (hematocrit) is measured (PAF induces a maximal increase in hematocrit at 5 to 7 minutes subsequent to the injection of PAF). The percent increase in hematocrit over the value prior to the injection of PAF is calculated. The hematocrit values obtained with the test compound are compared to the hemoconcentration values obtained with PAF alone and are expressed as percent inhibition of percent increase in hematocrit. From the values obtained, an ED50 is generated.
Similarly, a decrease in inhibition of hemoconcentration over time (Test J) can be measured by a modification of Test C described above wherein an amount of the test compound which is x times the ED50 for the compound is intravenously administered to the test animals. By observing the time at which the test compound still inhibits 50% of the hemoconcentration caused by the PAF challenge, the rate of loss of the test compound can be determined employing the above equation.
The target of series [3] is T1, Human Platelet PAF Receptor (Homo sapiens, UniProt P25105).
T1 construct: 500 μl of the above-described platelets; endogenous in cells; host or cells: washed human platelets from blood of healthy donors
Nature of the series: Human Platelet PAF Receptor Assay (Test A), inhibition of specific binding of [3H]-PAF to platelets. To be noted: [3H]-PAF specific binding. The protocol:
Platelet rich plasma (PRP) is prepared by centrifugation (250×g) of the blood for 20 minutes at room temperature. […] The platelets are resuspended at […] in TT/BSA containing 1.4 mM CaCl2.2H2 O and 0.7 mM MgCl2.6H2 O. All of the tests are conducted in duplicate and each of the test compounds is evaluated at concentrations of 100, 50, 1 and 0.1 μM. For each determination, the following solutions are mixed: 500 μl of the above-described platelets; 10 μl of [^3 H]-PAF (40,000 counts per minute (cpm) to a final concentration of […]); and either 10 μl of the test compound at 50× the desired final concentration, 10 μl of vehicle (total bound), or 10 μl of 1.85×10^-5 M cold PAF (non-specifically bound), […] The supernatants are then aspirated into the same scintillation vials as before and 10 ml, of Scintiverse II (a liquid scintillation cocktail) is added to and mixed therewith. The pellets are resuspended in 500 μl of Scintiverse II and mixed well. […] The amount of specific binding is calculated as the difference in cpm between the total bound [^3 H]-PAF and non-specifically bound [^3 H]-PAF. The percent inhibition of specific binding is determined by dividing the cpm specifically bound in the presence of the test compound by the cpm specifically bound in total, multiplying by 100 and then subtracting from 100. An IC50 (50% inhibitory concentration) value is generated by evaluating the test compound over the full concentration range.

Series [4] has as its system PAF-induced human platelet aggregation. In words: Platelet Aggregation Inhibition Assay (PAIA test), PAF-induced human platelet aggregation in vitro. It is filed as cell-based. To be noted: human platelet rich plasma. Here is the method: All of the compounds of formula I are useful as platelet activating factor inhibitors as indicated by their ability to inhibit platelet activating factor (PAF)-induced human platelet aggregation in vitro according to the Platelet Aggregation Inhibition Assay test (PAIA test) as follows: Human subjects are kept aspirin free for one week and fasted overnight. Platelet rich plasma (PRP) is prepared by centrifugation (200×g.) of freshly drawn blood anti-coagulated with 0.38% sodium citrate (final concentration). Platelet count is adjusted to 250,000 per μl using platelet poor plasma (PPP) obtained by a second centrifugation (700×g.) of the blood sample. An aliquot (0.38 ml) of the PRP is dispensed into cuvettes and maintained at room temperature (22° C.) until used (but for not more than two hours). […] All aggregations are allowed to proceed for 6 minutes for the addition of the inducing agent. The aggregation response is quantitated by determining the area under the curve (AUC). The AUC calculated for the inducing agent alone is considered to be one hundred percent. The potential percent inhibition of the aggregation response is determined by dividing the AUC generated in the presence of the compound by the AUC of the inducing agent alone, multiplying by 100 and then subtracting from 100.

Series [5] concerns PAF-induced bronchoconstriction. In words: Decrease in inhibition of bronchoconstriction over time (Test I). Type of series: in vivo, guinea pig. Particulars: i.v., x times the ED50, time still inhibiting 50%.
Procedure: Male guinea pigs, weighing between 300 and 400 gm, are anesthetized, after which time trachea tube, carotid and jugular catheters are inserted. The test animal is then force ventilated employing a small animal Harvard respirator and the resistance to lung inflation (PIP) is measured utilizing a pressure transducer and recorder. The test compound is administered orally at 30 minutes prior to, intravenously (jugular) at 5 minutes prior to, or intraarterially at 1 to 5 minutes prior to the introduction of PAF. The PAF (C18 -Sandoz, Hanover) is dissolved in Tris-Tyrode's bovine serum albumin buffer and administered intravenously (jugular) at 100 ng/kg. Any blood pressure measurements taken are recorded from a transducer attached to the carotid catheter. […] (This early response is also the greatest response and is, therefore, termed mazimal PIP); and (2) the long term (at least 30 minutes) PIP response which slowly decreases to baseline. A reading at 15 minutes after the administration of PAF is termed the endpoint PIP.
Thus, a decrease in inhibition of bronchoconstriction over time (Test I) can be measured by a modification of Test B described above wherein an amount of the test compound which is x times the ED50 for the compound is intravenously administered to the test animals. By observing the time at which the test compound still inhibits 50% of the bronchoconstriction caused by the PAF challenge, the rate of loss of the test compound can be determined employing the following equation: [formula]
The subject of series [6] is PAF-mediated extravasation. Nature of the series: PAF-induced Extravasation test (Test C), hemoconcentration. It is filed as in vivo, guinea pig. Particulars: Cavia porcellus, iv, i.a., guinea pigs, PAF 100 ng/kg i.v., increase in hematocrit.
Procedure: as §1, §2

T1 sequence (P25105 whole entry): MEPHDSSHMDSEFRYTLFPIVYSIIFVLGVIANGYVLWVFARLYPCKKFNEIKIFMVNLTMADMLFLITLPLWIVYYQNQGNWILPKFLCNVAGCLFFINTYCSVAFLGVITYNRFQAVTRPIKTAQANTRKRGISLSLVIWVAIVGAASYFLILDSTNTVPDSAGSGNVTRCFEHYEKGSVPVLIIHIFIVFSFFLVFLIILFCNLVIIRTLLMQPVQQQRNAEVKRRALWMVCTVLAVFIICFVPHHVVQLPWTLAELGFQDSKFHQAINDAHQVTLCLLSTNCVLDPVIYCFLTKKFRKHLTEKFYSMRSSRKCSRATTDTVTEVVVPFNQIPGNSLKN
Procedure for PAF-induced hypotension: Male Wistar rats, weighing approximately 300 gm, are anesthetized and their carotid arteries cannulated to enable their diastolic and systolic arterial blood pressure measurements to be recorded. PAF is then administered intravenously at either 100 or 500 ng/kg, and the blood pressure drop (within 10 sec.) and recovery time required to reach the pre-injection blood pressure level are measured. […] In order to measure the effectiveness of a compound for both the inhibition of blood pressure decreases and shortening of the recovery time, the test compound is administered intravenously over a range of between 5 and 7 dosage levels (1 or 2 test animals per dose) and between 1 and 5 minutes prior to the introduction of PAF to generate an ED50.

Take “1-O-alkyl-2-acetyl-sn-glyceryl-3-phosphoryl-choline [PAF, reference compound]”: the “decrease in blood pressure” value in the series with PAF-induced hypotension (PAF 100 ng/kg i.v.) worked out at 30%. For the same molecule, in the series with PAF-induced hypotension (PAF 500 ng/kg i.v.), the “recovery time to pre-injection blood pressure level” value came out at 10 min and the “decrease in blood pressure” value worked out at 52%.

Consider `CCCCCCCCCCCCCCCCCCNC(=O)OC[C@@]1(C)CC[C@@](C)(COC(=O)N(Cc2cccc[n+]2CC)C(C)=O)O1` (relative stereo) [Example 9, Cis-2-[acetyl[[tetrahydro-2,5-dimethyl-5-[[[[(octadecyl)amino]carbonyl]oxy]methyl]furan-2-yl]methoxycarbonyl]aminomethyl]-1-ethylpyridinium chloride], for which the ED50 is 20 µg/kg in series [1] and 15 µg/kg in series [6]. In addition, the Rate of loss in series [2] is 0.92 µg/kg/min; in series [5], 0.88 µg/kg/min. For the same molecule, the IC50 in series [3] was determined as 60 nM; in series [4] it was 350 nM.

On to `CCCCCCCCCCCCCCCCCCNC(=O)OC[C@@]1(C)CC[C@@](C)(COC(=O)NCc2cccc[n+]2CC)O1` (relative stereo) [Example 10, Cis-2-[[[tetrahydro-5-[[[[(octadecyl)amino]carbonyl]oxy]methyl]-2,5-dimethyl-furan-2-yl]methoxycarbonyl]aminomethyl]-1-ethylpyridinium chloride], for which the results for the ED50 in series [1] and in series [6] were 150 µg/kg and 60 µg/kg, respectively. Also, the Rate of loss in series [2] is 10.21 µg/kg/min; in series [5], 30.0 µg/kg/min. Further, the values for the IC50 in series [3] and in series [4] were 560 nM and 550 nM, respectively.

`CCCCCCCCCCCCCCCCCCNC(=O)OC[C@@]1(C)CC[C@@](C)(COC(=O)NCc2cc(C)cc(C)[n+]2C)O1` (relative stereo) [Example 11, Cis-2-[[[tetrahydro-2,5-dimethyl-5-[[[[(octadecyl)amino]carbonyl]oxy]methyl]furan-2-yl]methoxycarbonyl]aminomethyl]-1,4,6-trimethylpyridinium chloride]: the results for the IC50 in series [3] and in series [4] were 450 nM and 2200 nM, respectively.

On to `CCCCCCCCCCCCCCCCCCNC(=O)OC[C@@]1(C)CC[C@@](C)(COC(=O)N(C)Cc2cccc[n+]2C)O1` (relative stereo) [Example 12, Cis-2-[methyl[[tetrahydro-2,5-dimethyl-5-[[[[(octadecyl)amino]carbonyl]oxy]methyl]furan-2-yl]methoxycarbonyl]aminomethyl]-1-methylpyridinium chloride], for which the values for the IC50 in series [3] and in series [4] were 2200 nM and 2000 nM, respectively.

As for `CCCCCCCCCCCCCCCCCCNC(=O)OCC1(COC(=O)N(Cc2cccc[n+]2CC)C(C)=O)CCCO1` (stereo not shown) [Example 1, 2-[Acetyl[[tetrahydro-2-[[[[(octadecyl)-amino]carbonyl]oxy]methyl]furan-2-yl]-methoxycarbonyl]aminomethyl]-1-ethylpyridinium chloride], the ED50 with PAF-induced hypotension was determined as 3 µg/kg; in series [1], 2.5 µg/kg; in series [6], 2.8 µg/kg. Besides, the Rate of loss in series [2] came to 0.35 µg/kg/min; in series [5], 0.3 µg/kg/min. In addition, the results for the IC50 in series [3] and in series [4] were 10 nM and 40 nM, respectively.

For the molecule `CCCCCCCCCCCCCCCCCCNC(=O)OCC1(COC(=O)NCc2cccc[n+]2CC)CCCO1` (stereo not shown) [Example 2, 2-[[[Tetrahydro-2-[[[[(octadecyl)amino]carbonyl]oxy]methyl]furan-2-yl]methoxycarbonyl]aminomethyl]-1-ethylpyridinium chloride], the IC50 in series [3] turned out to be 800 nM; in series [4] it was 16000 nM.

As to `CCCCCCCCCCCCCCCCCCNC(=O)OCC1(COC(=O)NCCCCCc2cccc[n+]2CC)CCCO1.[Cl-]` (stereo not shown) [Example 3, 2-[5-[[[Tetrahydro-2-[[[[(octadecyl)-amino]carbonyl]oxy]methyl]furan-2-yl]methoxycarbonyl]amino]pentyl]-1-ethylpyridinium chloride], the figures for the 50% effective dose (ED50) (in the series with PAF-induced hypotension; in series [1]; in series [6]) were 27 µg/kg, 5 µg/kg and 8.5 µg/kg, respectively. Besides, the Rate of loss in series [2] is 0.65 µg/kg/min; in series [5], 0.66 µg/kg/min. The concentration for half-maximal inhibition (IC50) was determined as 20 nM in series [3] and 300 nM in series [4].

On to `CCCCCCCCCCCCCCCCCCNC(=O)OCC1(COC(=O)N(CCCCCc2cccc[n+]2CC)C(C)=O)CCCO1.[Cl-]` (stereo not shown) [Example 4, 2-[5-[Acetyl[[tetrahydro-2-[[[[(octadecyl)-amino]carbonyl]oxy]methyl]furan-2-yl]methoxycarbonyl]amino]pentyl]-1-ethylpyridinium chloride], for which the ED50 in series [1] stood at 15 µg/kg; in series [6] it was 17 µg/kg. Moreover, the figures for the Rate of loss in series [2] and in series [5] were 1.10 µg/kg/min and 0.35 µg/kg/min, respectively. For the same molecule, the IC50 was 8 nM in series [3] and 130 nM in series [4].

Take `CCCCCCCCCCCCCCCCCCN(C(C)=O)C(=O)OCC1(COC(=O)N(Cc2cccc[n+]2CC)C(C)=O)CCCO1` (stereo not shown) [Example 5, 2-[Acetyl[[tetrahydro-2-[[[[[acetyl(octadecyl)amino]carbonyl]oxy]methyl]furan-2-yl]methoxycarbonyl]aminomethyl]-1-ethylpyridinium chloride]: the results for the ED50 (in the series with PAF-induced hypotension; in series [1]; in series [6]) were 4.5 µg/kg, 4 µg/kg and 4 µg/kg, respectively. Further, the IC50 in series [3] was determined as 2 nM; in series [4], 48 nM.

Turning to `CCCCCCCCCCCCCCCCCCNC(=O)OCC1(COC(=O)N(Cc2cccc[n+]2CC)C(=O)C(C)(C)C)CCCO1` (stereo not shown) [Example 6, 2-[Trimethylacetyl[[tetrahydro-2-[[[[(octadecyl)amino]carbonyl]oxy]methyl]furan-2-yl]methoxycarbonyl]aminomethyl]-1-ethylpyridinium chloride], the IC50 in series [3] worked out at 85 nM; in series [4], 500 nM.

Take `CCCCCCCCCCCCCCCCCCNC(=O)OCC1(COC(=O)N(Cc2cccc[n+]2CC)C(=O)c2ccccc2)CCCO1` (stereo not shown) [Example 7, 2-[Benzoyl[[tetrahydro-2-[[[[(octadecyl)amino]carbonyl]oxy]methyl]furan-2-yl]-methoxycarbonyl]aminomethyl]-1-ethylpyridinium chloride]: the IC50 in series [3] worked out at 16 nM; in series [4] it was 840 nM.

As to `CCCCCCCCCCCCCCCCCCOCC1(COC(=O)N(Cc2cccc[n+]2CC)C(C)=O)CCCO1` (stereo not shown) [Example 8, 2-[Acetyl[[tetrahydro-2-[(octadecyloxy)methyl]furan-2-yl]methoxycarbonyl]aminomethyl]-1-ethylpyridinium chloride], the IC50 in series [3] amounted to 14 nM; in series [4], 860 nM.

What is called ED50 is the midpoint of the dose-response relation. High values mean a need for a large dose, low ones an effect at a small dose. A word on the IC50: it is the concentration needed to halve the response being measured. The low end stands for inhibition by little substance, the high end for a need for much substance.

The values above are taken from US4820718A, “N-alkyl-(2- or 5-substituted-2-methoxycarbonyl aminoalkyl furanyl)-substituted cyclimmonium salts and use thereof in PAF inhibition” (Sandoz Pharm. Corp., priority 1987, dated 1989).
